This is an account of results in ChEMBL document CHEMBL5584238, “Psammaplin A analogues with modified disulfide bond targeting histone deacetylases: Synthesis and biological evaluation” (Eur J Med Chem, 2024).

Experiment [1] relates to HCT-116. Briefly: Antiproliferative activity against human HCT-116 cells incubated for 48 hrs by MTT assay. The experiment is classed as functional, cell-based. The note with it: HCT-116, 48 h. (In general: Formazan colour is commonly taken as a measure of viable cells.)
The subject of experiment [2] is HCT-116. Briefly: Induction of apoptosis in human HCT-116 cells assessed as early apoptotic cells at 0.2 uM incubated for 24 hrs by Annexin V-FITC/PI staining based flow cytometry analysis ( Rvb = 2.36%). Format: functional.
A further experiment has as its system Mus musculus. Nature of the experiment: In vivo inhibition of class 1 HDACs in BALB/c nude mouse assessed as upregulation of tumor acetylated H3 level at 5 mg/kg, ip administered every 2 days for 26 days by Western blotting analysis. The experiment is classed as functional, organism-based. The note with it: time 26.0 day.
For experiment [3], the system named is HCT-116. Nature of the experiment: Induction of cell cycle arrest in human HCT-116 cells assessed as accumulation of cells at G1 phase at 0.2 uM after 24 hrs by PI staining based flow cytometry analysis (reference value: 37.9%). Format: functional. Background: A flow cytometer gives signals particle by particle.
Experiment [4] relates to HCT-116. Briefly: Induction of apoptosis in human HCT-116 cells assessed as late apoptotic cells at 0.2 uM incubated for 24 hrs by Annexin V-FITC/PI staining based flow cytometry analysis ( Rvb = 5.32%). The experiment is classed as functional.
Experiment [5] has as its system HCT-116. Nature of the experiment: Induction of apoptosis in human HCT-116 cells assessed as early apoptotic cells at 0.4 uM incubated for 24 hrs by Annexin V-FITC/PI staining based flow cytometry analysis ( Rvb = 2.36%). The experiment is classed as functional.
Experiment [6] relates to HCT-116. Briefly: Induction of cell cycle arrest in human HCT-116 cells assessed as accumulation of cells at S phase at 0.2 uM after 24 hrs by PI staining based flow cytometry analysis (reference value: 52.8%). The experiment is classed as functional.
Experiment [7] deals with Class 1 histone deacetylase (Homo sapiens) (UniProt Q13547+O15379+Q92769+Q9BY41). Nature of the experiment: Inhibition of class 1 HDACs in human HCT-116 cells assessed as upregulation of acetylated alpha-H3 level incubated for 24 hrs by Western blotting analysis. The note with it: dose 0.5-4 µM. Format: cell-based. In general terms: Immunoblotting shows a protein as a band on a membrane.
Sequence of Class 1 histone deacetylase (Homo sapiens) (O15379 whole entry, looked up): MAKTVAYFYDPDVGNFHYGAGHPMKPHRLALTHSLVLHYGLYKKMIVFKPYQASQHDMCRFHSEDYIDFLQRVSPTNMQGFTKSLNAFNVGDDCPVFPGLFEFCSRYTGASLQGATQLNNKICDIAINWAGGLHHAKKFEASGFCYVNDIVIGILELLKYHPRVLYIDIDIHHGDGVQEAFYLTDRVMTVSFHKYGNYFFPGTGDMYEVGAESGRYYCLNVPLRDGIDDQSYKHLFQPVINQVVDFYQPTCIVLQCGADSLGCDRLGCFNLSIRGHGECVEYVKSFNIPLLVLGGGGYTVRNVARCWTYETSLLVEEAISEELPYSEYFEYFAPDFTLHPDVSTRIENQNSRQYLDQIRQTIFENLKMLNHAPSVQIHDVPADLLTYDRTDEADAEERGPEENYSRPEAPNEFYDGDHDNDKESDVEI
Sequence of Class 1 histone deacetylase (Homo sapiens) (Q13547 whole entry, looked up): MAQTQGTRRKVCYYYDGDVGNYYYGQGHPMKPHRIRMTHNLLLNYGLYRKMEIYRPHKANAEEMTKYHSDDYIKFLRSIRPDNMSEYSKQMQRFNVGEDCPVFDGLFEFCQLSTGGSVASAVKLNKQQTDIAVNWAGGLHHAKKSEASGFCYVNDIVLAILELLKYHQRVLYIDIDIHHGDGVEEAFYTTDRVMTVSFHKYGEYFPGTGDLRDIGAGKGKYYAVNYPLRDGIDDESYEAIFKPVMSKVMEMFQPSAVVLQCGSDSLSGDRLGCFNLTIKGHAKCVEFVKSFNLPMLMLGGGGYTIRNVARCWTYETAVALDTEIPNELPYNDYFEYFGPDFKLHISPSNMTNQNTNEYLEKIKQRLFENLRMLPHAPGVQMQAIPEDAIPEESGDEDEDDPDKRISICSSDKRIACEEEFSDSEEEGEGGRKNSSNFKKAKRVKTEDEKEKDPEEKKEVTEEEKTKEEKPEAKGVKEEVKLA
Sequence of Class 1 histone deacetylase (Homo sapiens) (Q92769 whole entry, looked up): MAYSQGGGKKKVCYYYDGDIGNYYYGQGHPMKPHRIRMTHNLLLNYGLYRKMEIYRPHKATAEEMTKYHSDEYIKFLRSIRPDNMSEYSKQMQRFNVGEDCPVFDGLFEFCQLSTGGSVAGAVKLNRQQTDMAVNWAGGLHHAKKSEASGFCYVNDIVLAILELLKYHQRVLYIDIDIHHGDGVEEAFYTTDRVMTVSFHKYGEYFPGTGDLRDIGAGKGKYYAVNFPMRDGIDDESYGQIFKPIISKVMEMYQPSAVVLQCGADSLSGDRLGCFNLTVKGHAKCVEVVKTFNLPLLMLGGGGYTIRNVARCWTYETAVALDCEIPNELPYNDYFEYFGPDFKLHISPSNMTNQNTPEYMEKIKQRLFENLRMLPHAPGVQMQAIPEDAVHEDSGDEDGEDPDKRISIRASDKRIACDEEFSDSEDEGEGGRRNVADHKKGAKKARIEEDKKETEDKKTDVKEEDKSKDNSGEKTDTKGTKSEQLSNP
Sequence of Class 1 histone deacetylase (Homo sapiens) (Q9BY41 whole entry, looked up): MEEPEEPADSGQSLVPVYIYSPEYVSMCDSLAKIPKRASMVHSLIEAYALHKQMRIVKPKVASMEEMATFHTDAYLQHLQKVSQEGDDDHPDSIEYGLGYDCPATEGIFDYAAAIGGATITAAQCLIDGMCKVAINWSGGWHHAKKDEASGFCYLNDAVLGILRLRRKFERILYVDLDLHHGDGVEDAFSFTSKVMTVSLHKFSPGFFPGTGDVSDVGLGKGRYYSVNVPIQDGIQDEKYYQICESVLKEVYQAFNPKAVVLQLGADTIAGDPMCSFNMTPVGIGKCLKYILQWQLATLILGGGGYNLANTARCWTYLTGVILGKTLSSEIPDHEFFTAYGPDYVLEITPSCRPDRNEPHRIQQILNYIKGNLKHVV

Experiment [8] has as its system HCT-116. Briefly: Induction of cell cycle arrest in human HCT-116 cells assessed as accumulation of cells at G1 phase at 0.1 uM after 24 hrs by PI staining based flow cytometry analysis (reference value: 37.9%). The experiment is classed as functional.
Experiment [9] deals with HCT-116. Briefly: Induction of apoptosis in human HCT-116 cells assessed as late apoptotic cells at 0.4 uM incubated for 24 hrs by Annexin V-FITC/PI staining based flow cytometry analysis ( Rvb = 5.32%). Format: functional.
Experiment [10] deals with HCT-116. Briefly: Induction of apoptosis in human HCT-116 cells assessed as necrotic cells at 0.4 uM incubated for 24 hrs by Annexin V-FITC/PI staining based flow cytometry analysis ( Rvb = 0.24%). Format: functional.
Experiment [11] concerns the target T1, Protein deacetylase HDAC6 (Homo sapiens) (UniProt Q9UBN7).
T1 sequence (whole entry): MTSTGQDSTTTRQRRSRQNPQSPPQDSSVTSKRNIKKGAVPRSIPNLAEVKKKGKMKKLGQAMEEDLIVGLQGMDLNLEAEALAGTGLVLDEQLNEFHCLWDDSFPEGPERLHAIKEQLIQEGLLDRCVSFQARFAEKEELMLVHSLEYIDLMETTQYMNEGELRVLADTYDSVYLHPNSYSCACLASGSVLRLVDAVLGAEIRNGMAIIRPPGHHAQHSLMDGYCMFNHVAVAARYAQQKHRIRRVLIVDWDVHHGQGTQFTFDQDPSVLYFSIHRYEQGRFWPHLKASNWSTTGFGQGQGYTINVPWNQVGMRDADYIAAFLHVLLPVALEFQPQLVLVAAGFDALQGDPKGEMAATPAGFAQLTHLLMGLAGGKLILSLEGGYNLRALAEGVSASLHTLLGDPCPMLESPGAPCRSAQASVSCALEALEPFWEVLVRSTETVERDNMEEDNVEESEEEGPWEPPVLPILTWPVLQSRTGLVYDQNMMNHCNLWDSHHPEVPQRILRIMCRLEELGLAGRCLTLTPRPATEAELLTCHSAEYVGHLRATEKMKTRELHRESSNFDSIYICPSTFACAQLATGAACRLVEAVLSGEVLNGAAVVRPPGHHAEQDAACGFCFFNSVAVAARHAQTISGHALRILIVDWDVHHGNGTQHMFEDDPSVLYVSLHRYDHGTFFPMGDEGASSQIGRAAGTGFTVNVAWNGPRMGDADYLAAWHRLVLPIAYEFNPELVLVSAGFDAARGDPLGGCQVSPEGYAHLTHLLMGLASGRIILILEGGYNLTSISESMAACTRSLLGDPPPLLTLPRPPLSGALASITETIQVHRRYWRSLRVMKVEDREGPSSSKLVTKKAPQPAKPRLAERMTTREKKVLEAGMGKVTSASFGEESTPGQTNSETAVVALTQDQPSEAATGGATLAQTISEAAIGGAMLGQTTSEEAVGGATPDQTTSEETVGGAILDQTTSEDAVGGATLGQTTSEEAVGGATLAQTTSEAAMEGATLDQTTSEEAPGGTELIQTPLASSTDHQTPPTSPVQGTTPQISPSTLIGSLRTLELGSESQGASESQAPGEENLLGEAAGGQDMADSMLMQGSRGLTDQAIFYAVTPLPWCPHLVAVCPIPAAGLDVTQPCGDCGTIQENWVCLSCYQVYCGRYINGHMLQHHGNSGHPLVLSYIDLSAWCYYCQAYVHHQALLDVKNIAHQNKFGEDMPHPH
Nature of the experiment: Inhibition of HDAC6 in human HCT-116 cells assessed as upregulation of acetylated alpha-tubulin level incubated for 24 hrs by Western blotting analysis. Format: cell-based. The note with it: dose 0.5-4 µM.

Experiment [12] relates to HCT-116. Briefly: Induction of apoptosis in human HCT-116 cells assessed as viable cells at 0.4 uM incubated for 24 hrs by Annexin V-FITC/PI staining based flow cytometry analysis ( Rvb = 92.2%). The settings on record: read-out: Activity. Format: functional.
Experiment [13] concerns the target T2, Protein deacetylase HDAC6 (Homo sapiens, UniProt Q9UBN7).
T2 sequence (Q9UBN7 whole entry): T1 sequence (whole entry)
Nature of the experiment: Inhibition of recombinant human HDAC6 using Boc-Lys(Ac)-AMC as substrate preincubated for 1 hr followed by substrate addition and measured after 2 hrs by microplate reader assay.

Experiment [14] deals with HCT-116. Nature of the experiment: Induction of cell cycle arrest in human HCT-116 cells assessed as accumulation of cells at G2/M phase at 0.1 uM after 24 hrs by PI staining based flow cytometry analysis (reference value: 9.3%). The experiment is classed as functional.
Experiment [15] has as its system HCT-116. Nature of the experiment: Induction of cell cycle arrest in human HCT-116 cells assessed as accumulation of cells at G2/M phase at 0.2 uM after 24 hrs by PI staining based flow cytometry analysis (reference value: 9.3%). Format: functional.

pIC50: −log10 of the molar value. The source made the active and inactive calls. No cut-off for these calls is given here.

With `O=C(NCC[Se][Se]CCNC(=O)/C(Cc1ccc(O)c(Br)c1)=N/O)/C(Cc1ccc(O)c(Br)c1)=N/O`, the figures for the pIC50 (with HCT-116 [1]; in experiment [13]) were 6.62 and 7.22, respectively. Also, the Activity in the experiment on HCT-116 [2] amounted to 46.1%; with HCT-116 [3], 15%; in the experiment with HCT-116 [4], 12.9%; with HCT-116 [5], 67%; with HCT-116 [6] it was 10.45%; with HCT-116 [8], 32.08%. Moreover, the Activity amounted to 4.94% in the experiment with HCT-116 [9], 0.082% with HCT-116 [10], 47.92% with HCT-116 [14] and 74.56% in the experiment with HCT-116 [15]. In the experiment with Mus musculus, the inhibition entry is “Active”. Also, the inhibition entry in experiment [7] and in [11] was “Dose-Dependent Effect” each time. The viability at 0.4 µM in the experiment with HCT-116 [12] is 28%.
As to `O=C(NCC[Se][Se]CCNC(=O)/C(Cc1ccsc1)=N/O)/C(Cc1ccsc1)=N/O`, the pIC50 (as a rule, the negative decadic logarithm of the IC50, by convention in mol/L) in the experiment with HCT-116 [1] was 6.68; in experiment [13], 5.51. Besides, the Activity in the experiment on HCT-116 [2] is recorded as 47.1%; with HCT-116 [3] it was 11.19%; with HCT-116 [4], 7.96%; in the experiment on HCT-116 [5], 73.3%; with HCT-116 [6], 36.99%; in the experiment with HCT-116 [8], 50.11%. Further, the Activity is given as 6.97% with HCT-116 [9], 0.057% in the experiment with HCT-116 [10], 31.05% with HCT-116 [14] and 51.82% with HCT-116 [15]. Further, the inhibition entry in the experiment with Mus musculus was “Active”. Also, the inhibition result in experiment [7] and in experiment [11] was “Dose-Dependent Effect” in each case. For the same molecule, the viability at 0.4 µM in the experiment on HCT-116 [12] stood at 19.7%.
